Measured values reported in EP0312157A2, “Tetrapeptide renin inhibitors having a novel c-terminal amino acid” (Merck & Co., Inc., priority 1987, dated 1989).
Where a name gives a salt, the structure may show the parent alone.

Target: T1, renin (Homo sapiens, UniProt P00797)
T1 sequence (P00797 67-406): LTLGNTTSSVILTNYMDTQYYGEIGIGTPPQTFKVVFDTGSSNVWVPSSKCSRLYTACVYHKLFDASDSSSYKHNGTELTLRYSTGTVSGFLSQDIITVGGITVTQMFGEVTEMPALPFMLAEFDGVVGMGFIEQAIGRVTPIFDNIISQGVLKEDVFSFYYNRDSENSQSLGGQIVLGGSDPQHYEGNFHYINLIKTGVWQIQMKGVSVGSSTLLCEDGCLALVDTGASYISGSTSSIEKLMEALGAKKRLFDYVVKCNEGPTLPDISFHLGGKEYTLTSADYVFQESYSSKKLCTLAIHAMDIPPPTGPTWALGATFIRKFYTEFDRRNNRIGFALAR
Experiment: renin inhibition, IC50 (method not described)
Type: biochemical

Compound	IC50 [nM]
CC(C)(C)OC(=O)N[C@@H](Cc1ccccc1)C(=O)N[C@@H](Cc1c[nH]cn1)C(=O)N[C@@H](CC1CCCCC1)[C@@H](O)CC(=O)N[C@@H](CCCCN)C(=O)NCc1ccncc1 [Example 1, N^α-t-butoxycarbonyl-L-Phenylalanyl-L-histidyl-(3S,4S)-4-amino-5-cyclohexyl-3-hydroxypentanoyl-L-lysyl-4-(aminomethyl)pyridine amide hydrochloride]	38
CC(C)(C)OC(=O)N[C@@H](Cc1ccccc1)C(=O)N[C@@H](Cc1c[nH]cn1)C(=O)N[C@@H](CC1CCCCC1)[C@@H](O)CC(=O)N[C@@H](CCCCN)C(=O)NCC1CCNCC1 [Example 2, N^α-t-butoxycarbonyl-L-phenylalanyl-L-histidyl-{3S,4S)-4-amino-5-cyclohexyl-3-hydroxy-pentanoyl-L-lysyl-4-(aminomethyl)-piperidinamide dihydrochloride]	338
CN(CCc1ccccn1)C(=O)[C@H](CCCCN)NC(=O)C[C@H](O)[C@H](CC1CCCCC1)NC(=O)[C@H](Cc1c[nH]cn1)NC(=O)[C@H](Cc1ccccc1)NC(=O)OC(C)(C)C [Example 5, N^α-t-butoxycarbonyl-L-phenylalanyl-L-histidyl-(3S,4S)-4-amino-5-cyclohexyl-3-hydroxypentanoyl-L-lysyl-2-(2-methylaminoethyl)-pyridinamide acetate]	225
COc1ccc(C[C@H](NC(=O)OC(C)(C)C)C(=O)N[C@@H](Cc2c[nH]cn2)C(=O)N[C@@H](CC2CCCCC2)[C@@H](O)CC(=O)N[C@@H](CCCCN)C(=O)NCc2ccncc2)cc1 [Example 6, N^α-t-butoxycarbonyl-O-methyl-L-tyrosyl-L-histidyl-(3S,4S)-4-amino-5-cyclohexyl-3-hydroxy-pentanoyl-L-lysyl-4-(aminomethyl)pyridine amide]	42
CC(C)(C)OC(=O)N[C@@H](Cc1ccccc1)C(=O)N[C@@H](Cc1c[nH]cn1)C(=O)N[C@@H](CC1CCCCC1)[C@@H](O)CC(=O)N[C@@H](CCCCN)C(=O)N[C@H]1CCCCNC1=O [Example 9, N^α-t-butoxycarbonyl-L-phenylalanyl-L-histidyl-(3S,4S)-4-amino-5-cyclohexyl-3-hydroxypentanoyl-L-lysyl-L-3-amino-2-oxoazepine amide hydrochloride]	26.4
CC(C)(C)OC(=O)N[C@@H](Cc1ccccc1)C(=O)N[C@@H](Cc1c[nH]cn1)C(=O)N[C@@H](CC1CCCCC1)[C@@H](O)CC(=O)N[C@@H](CN)C(=O)NCc1ccncc1 [Example 10, N^α-t-butoxycarbonyl-L-phenylalanyl-L-histidyl-(3S,4S)-4-amino-5-cyclohexyl-3-hydroxypentanoyl-L-2,4-diaminopropionyl-4-(aminomethyl)pyridine amide hydrochloride]	37
NCCCC[C@H](NC(=O)C[C@H](O)[C@H](CC1CCCCC1)NC(=O)[C@H](Cc1c[nH]cn1)NC(=O)[C@H](Cc1ccccc1)NC(=O)N1CCOCC1)C(=O)NCc1ccncc1 [Example 23, N-[(Morpholin-4-yl)carbonyl]Phe-His-ACHPA-Lys-NHCH2(pyridin-4-y1)]	12
CC(C)(C)OC(=O)NCCOC(=O)N[C@@H](Cc1ccccc1)C(=O)N[C@@H](Cc1c[nH]cn1)C(=O)N[C@@H](CC1CCCCC1)[C@@H](O)CC(=O)N[C@@H](CCCCN)C(=O)NCC1CCNCC1 [Example 26, Boc-NHCH2CH2OCO-Phe-His-ACHPA-Lys-NHCH2(piperidin-4-yl)]	39
CC(C)S(=O)(=O)N[C@@H](Cc1ccccc1)C(=O)N[C@@H](Cc1c[nH]cn1)C(=O)N[C@@H](CC1CCCCC1)[C@@H](O)CC(=O)N[C@@H](CCCCN)C(=O)NCC1CCNCC1 [Example 27, i-PrSO2-Phe-His-ACHPA-Lys-CH2(piperidin-4-yl)]	159
N^α-t-butoxycarbonyl-L-phenylalanyl-L-histidyl-(3S,4S)-4-amino-5-cyclohexyl-3-hydroxypentanoyl-L-lysyl-N-(2-aminoethyl)-morpholine amide dihydrochloride [Example 12]	68.9
